Results: patent US10898561B2, “Peptides and combination of peptides for use in immunotherapy against pancreatic cancer and other cancers” (IMMATICS BIOTECHNOLOGIES GMBH, priority 2015, dated 2021)

Legend:
HLA-A*02:01 = HLA-A*02:01 (Homo sapiens, UniProt P04439, D140Y/D185E/D98H/E176V/E277Q/G131W/G231S/I119V/I121R/I166T/I218V/L300P/L318F/N151K/N90K/P208A/P217A/Q86G/Q94H/R138H/R169H/T345S); experiment: MHC binding assay: UV-ligand exchange with beta2m ELISA; details: MHC class I binding score, yield of UV-ligand exchange
From the text: Candidate peptides for T cell based therapies according to the present invention were further tested for their MHC binding capacity (affinity). The individual peptide-MHC complexes were produced by UV-ligand exchange, where a UV-sensitive peptide is cleaved upon UV-irradiation, and exchanged with the peptide of interest as analyzed. Only peptide candidates that can effectively bind and stabilize the peptide-receptive MHC molecules prevent dissociation of the MHC complexes. To determine the yield of the exchange reaction, an ELISA was performed based on the detection of the light chain (β2m) of stabilized MHC complexes. The assay was performed as generally described in Rodenko et al. (Rodenko et al., 2006).
96 well MAXISorp plates (NUNC) were coated over night with 2 ug/ml streptavidin in PBS at room temperature, washed 4× and blocked for 1 h at 37° C. in 2% BSA containing blocking buffer. Refolded HLA-A*02:01/MLA-001 monomers served as standards, covering the range of 15-500 ng/ml. Peptide-MHC monomers of the UV-exchange reaction were diluted 100 fold in blocking buffer. Samples were incubated for 1 h at 37° C., washed four times, incubated with 2 ug/ml HRP conjugated anti-β2m for 1 h at 37° C., washed again and detected with TMB solution that is stopped with […]. Absorption was measured at 450 nm. Candidate peptides that show a high exchange yield (preferably higher than 50%, most preferred higher than 75%) are generally preferred for a generation and production of antibodies or fragments thereof, and/or T cell receptors or fragments thereof, as they show sufficient avidity to the MHC molecules and prevent dissociation of the MHC complexes.

CD8+ T cells = experiment: In vitro T-cell priming assay with aAPCs loaded with peptide/MHC complexes and anti-CD28 antibody, multimer readout; format: cell-based, human; details: in vitro immunogenicity, healthy HLA-A*02 donors; for donors: positive donors; for wells: positive wells
From the text: In order to obtain information regarding the immunogenicity of the TUMAPs of the present invention, the inventors performed investigations using an in vitro T-cell priming assay based on repeated stimulations of CD8+ T cells with artificial antigen presenting cells (aAPCs) loaded with peptide/MHC complexes and anti-CD28 antibody.
In order to perform in vitro stimulations by artificial antigen presenting cells loaded with peptide-MHC complex (pMHC) and anti-CD28 antibody, the inventors first isolated CD8+ T cells from fresh HLA-A*02 leukapheresis products via positive selection using CD8 microbeads (Miltenyi Biotec, Bergisch-Gladbach, Germany) of healthy donors obtained from the University clinics Mannheim, Germany, after informed consent.
PBMCs and isolated CD8+ lymphocytes were incubated in T-cell medium (TCM) until use consisting of RPMI-Glutamax (Invitrogen, Karlsruhe, Germany) supplemented with 10% heat inactivated human AB serum (PAN-Biotech, Aidenbach, Germany), 100 U/ml Penicillin/100 μg/ml Streptomycin (Cambrex, Cologne, Germany), 1 mM sodium pyruvate (CC Pro, Oberdorla, Germany), 20 μg/ml Gentamycin (Cambrex). 2.5 ng/ml IL-7 (PromoCell, Heidelberg, Germany) and 10 U/ml IL-2 (Novartis Pharma, Nürnberg, Germany) were also added to the TCM at this step.
Generation of pMHC/anti-CD28 coated beads, T-cell stimulations and readout was performed in a highly defined in vitro system using four different pMHC molecules per stimulation condition and 8 different pMHC molecules per readout condition.
The purified co-stimulatory mouse IgG2a anti human CD28 Ab 9.3 (Jung et al., 1987) was chemically biotinylated using Sulfo-N-hydroxysuccinimidobiotin as recommended by the manufacturer (Perbio, Bonn, Germany). Beads used were 5.6 μm diameter streptavidin coated polystyrene particles (Bangs Laboratories, Ill., USA).
800.000 beads/200 μl were coated in 96-well plates in the presence of 4×12.5 ng different biotin-pMHC, washed and 600 ng biotin anti-CD28 were added subsequently in a volume of 200 μl. Stimulations were initiated in 96-well plates by co-incubating 1×10^6 CD8+ T cells with 2×10^6 washed coated beads in 200 μl TCM supplemented with 5 ng/ml IL-12 (PromoCell) for 3 days at 37° C. Half of the medium was then exchanged by fresh TCM supplemented with 80 U/ml IL-2 and incubating was continued for 4 days at 37° C. This stimulation cycle was performed for a total of three times. For the pMHC multimer readout using 8 different pMHC molecules per condition, a two-dimensional combinatorial coding approach was used as previously described (Andersen et al., 2012) with minor modifications encompassing coupling to 5 different fluorochromes. Finally, multimeric analyses were performed by staining the cells with Live/dead near IR dye (Invitrogen, Karlsruhe, Germany), CD8-FITC antibody clone SK1 (BD, Heidelberg, Germany) and fluorescent pMHC multimers. For analysis, a BD LSRII SORP cytometer equipped with appropriate lasers and filters was used. Peptide specific cells were calculated as percentage of total CD8+ cells. Evaluation of multimeric analysis was done using the FlowJo software (Tree Star, Oregon, USA). In vitro priming of specific multimer+CD8+ lymphocytes was detected by comparing to negative control stimulations.

| Substance | Peptide exchange (HLA-A*02:01) | Wells positive [%] (CD8+ T cells) | donors (CD8+ T cells) | wells (CD8+ T cells) |
| --- | --- | --- | --- | --- |
| 3 (ALLTFMEQV; listed as Homo sapiens) [compound 3] | +++ (50%-75% = +++) | ++ (20%-49% = ++) |  |  |
| 20 (RLAGDGVGAV; listed as Homo sapiens) [compound 20] | ++ (20%-49% = ++) | ++++ (>=70% = ++++) |  |  |
| 21 (HLMDQPLSV; listed as Homo sapiens) [compound 21] | ++ (20%-49% = ++) | + (<20% = +) |  |  |
| 23 (SLSAFTLFL; listed as Homo sapiens) [compound 23] | ++ (20%-49% = ++) | ++ (20%-49% = ++) |  |  |
| 34 (MLMPVHFLL; listed as Homo sapiens) [compound 34] | ++++ (>=75% = ++++) | + (<20% = +) |  |  |
| 37 (GLLKKINSV; listed as Homo sapiens) [compound 37] | ++ (20%-49% = ++) | + (<20% = +) |  |  |
| 50 (ALAAILTRL; listed as Homo sapiens) [compound 50] | +++ (50%-75% = +++) | +++ (50%-69% = +++) |  |  |
| 69 (VMAPFTMTI; listed as Homo sapiens) [compound 69] |  |  | ++++ (>=70% = ++++) | ++ (20%-49% = ++) |
| 87 (LLLGSPAAA; listed as Homo sapiens) [compound 87] |  |  | +++ (50%-69% = +++) | + (<20% = +) |
